Here are results for four substances from PMC9456491, “Targeting the Mitochondrial Protein VDAC1 as a Potential Therapeutic Strategy in ALS” (International Journal of Molecular Sciences, 2022).

For experiment [1] the following is noted: ref [32]; cited from earlier work. From the text: In order to test whether a VDAC1-derived N-terminal peptide can rescue mutant SOD1 toxicity, we expressed two different SOD1 mutants (SOD1^G93A or SOD1^G37R) in SH-SY5Y neuronal cells. These expressed SOD1 mutant proteins decreased cell survival compared to control cells. […] It is important to note that in this peptide, the last six residues f ...

For experiment [2], the system named is SH-SY5Y neuronal cells expressing mutant SOD1^G93A or SOD1^G37R. Description: Rescue of mutant SOD1-induced cell death in transfected SH-SY5Y cells. In kind it is cell-based. The settings on record: 4.5 × 10^4 cells/well, transfected with SOD1^G93A or SOD1^G37R, peptide 20 µM, 5 h, 24 h post-transfection, triplicates, n = 3, means ± SEM. The procedure: Figure 1 Identification of VDAC1 interacting sites in SOD1. (A) SH-SY5Y cells (4.5 × 10^4 cells/well in 24-well plates) were transfected with an empty plasmid or a plasmid encoding for mutant SOD1^G93A or SOD1^G37R. Then, 24 h post-transfection, the cells were incubated for 5 h with (10-20)N-Ter-Antp peptide (20 µM) and then analyzed for cell death. The results are from triplicates of different biological repeats (n = 3) and are presented as the means ± SEM. * p < 0.05. (B) Schematic presentation of peptide arrays and detection of VDAC1-interacting peptides. (C) Glass-bound peptide array consisting of 768 overlapping peptides derived from 19 VDAC1-interacting proteins were incubated for 4 h with purified VDAC1 (64 nM) and then blotted with anti-VDAC1 antibodies against an internal sequence (1:5000) or with antibodies against the VDAC1-N-terminus, followed by incubation with HRP-conjugated anti-mouse IgG and detection using a chemiluminescence kit. […]
SH-SY5Y and NSC-34 cells were grown at 37 °C and with 5% CO2 in Dulbecco’s modified Eagle medium (DMEM) supplemented with 10% tetracycline-free fetal bovine serum (FBS), L-Glutamine (2 mM), and penicillin (100 U/mL)/streptomycin (0.1 mg/mL). […] According to the manufacturer’s protocol, cell viability was analyzed using the CellTiter 96 AQueous one-solution cell proliferation assay (Promega) and plate reader at 490 nm.

Experiment [3] relates to VDAC1 interaction with SOD1-derived peptides (spots 1C16 and 1C17). Description: Inhibition of VDAC1 interaction with SOD1-derived peptides on peptide array. Conditions: VDAC1 64 nM pre-incubated 1 h with 160 nM SOD1 protein, then 4 h with array; for inhibition of VDAC1 interaction with 1C17 peptide: spot 1C17; for decrease of VDAC1 interaction with both SOD1-derived peptides 1C16 and 1C17: spots by Image J. The format is binding, rat. The procedure: Figure 2 VDAC1 interaction with SOD1-derived peptides is reduced by WT and mutant SOD1. VDAC1 (64 nM) was pre-incubated for 1 h without (A) or with 160 nM of SOD1^WT (B), SOD1^G93A (C), or SOD1^G85R (D), followed by incubation for 4 h with the peptide array and then blotted with anti-VDAC1 antibodies, as in Figure 1C. SOD1-derived sequences are circled. […] (G) Pull down with anti-SOD1 antibody was performed by incubating recombinant VDAC1 and SOD1 proteins (2 µg each) with increasing concentrations of SOD1-derived peptide (0, 5, 15, and 30 µM). Immunoblotting was used to determine the levels of SOD1^G93A and VDAC1 in the bound and unbound fraction of each immunoprecipitation experiment. […] (H) Quantification of immunoblotting bands with ImageJ software. Quantification analysis of the relative VDAC1 intensity was performed with one-way ANOVA. Bars represent mean ± SEM. TEXT PRINTED IN THE PICTURE: (F) SOD1-derived peptide: Kd= 4 μM
Customized 768-peptide sequences derived from 19 VDAC1-interacting proteins produced by INTAVIS Peptide Services (GmbH & Co. KG, Tübingen, Germany) were arrayed on a glass slide. The interaction of purified VDAC1 with glass-bound peptide arrays (BGUN_SB-002) was assessed by slide washing with TBST buffer (150 mM NaCl, 50 mM Tris/HCl, pH 7.4, and 0.1% Tween-20), followed by overnight incubation with blocking buffer (Tris-buffered saline, pH 7.8, containing 2.5% low-fat milk, w/v) at 4 °C. Next, the peptide array glass slides were incubated with purified VDAC1 (64 nM) in 400 µL of protein-interacting buffer (20 mM HEPES, 100 mM KCl, pH,7.4, PBS) at room temperature for 4 h in a humidified chamber. Then, the peptide array glass slides were washed (three times, 10 min each) with TBST and incubated overnight at 4 °C with anti-VDAC1 antibody against an internal sequence (ab15895) or against the N-terminus (ab154856) (1:5000). The peptide array glass slides were washed with 0.1% Tween-20 in TBS buffer/Tris-buffered saline (150 mM NaCl, 50 mM Tris/HCl, pH 7.4 TBST), followed by incubation for 2 h at RT with HRP-conjugated anti-mouse or anti-rabbit (1:10,000) or anti-goat (1:20,000) IgG as a secondary antibody. Enhanced chemiluminescent substrate (Pierce Chemical, Rockford, IL, USA) was used to detect HRP. The signal was captured in the dark using FUSION-FX (Vilber Lourmat) software.
The VDAC1 protein was purified from rat liver mitochondria, as previously described. Briefly, rat liver mitochondria (5 mg/mL) in 10 mM Tris-HCl, pH 7.2, were incubated with 2% LDAO on ice for 20 min, followed by centrifugation (30 min, 14,000× g), and the obtained supernatant was loaded onto a dry celite:hydroxyapatite (2:1) column. VDAC1 was eluted with a solution containing 2% LDAO, 10 mM Tris-HCl, pH 7.2, 50 mM NaCl, and 22 mM NaH2PO4. The VDAC1-containing fractions were dialyzed against 10 mM Tris-HCl, pH 7.2, and subjected to a second chromatography step on a carboxymethyl-cellulose (CMC) column from which VDAC1 was eluted with a solution containing 10 mM Tris-HCl, pH 7.2, 0.3% LDAO, and 500 mM NaCl. The VDAC1-containing fractions were collected and used for VDAC1 channel conductance and microscale thermophoresis (MST) assays.
Recombinant SOD1^WT, SOD1^G93A, and SOD1^G85R were purified as previously described. Briefly, the proteins were expressed as 6His-tagged (N-term) soluble proteins in BL21 cells, and the expression of the recombinant proteins was induced by addition of 0.5 mM IPTG, following purification using a 5mL HisTrap FF column (GE Healthcare, Chicago, IL, USA). The peak fractions were dialyzed overnight at 4 °C against a storage buffer (50 mM Na^+/phosphate, pH 7.6, 0.1 M NaCl, and 10% glycerol), concentrated by ultrafiltration (10 kDa cutoff, Millipore, USA), centrifuged at 110,000× g at 4 °C for 1 h using ultracentrifuge (Sorvall M120 Discovery, Waltham, MA, USA), and stored at −20 °C until use. […]

Turning to “1-MAVPPTYADLGKSARDVFTK-20-RQIKIWFQNRRMKWKK [(10–20)-N-Ter-Antp, VDAC1-N-terminus-derived peptide]”, in experiment [1], the cell death activity entry is “lost its cell death activity”. In experiment [2], the “rescue of mutant SOD1-induced toxicity (cell survival)” value is recorded as “rescued mutant SOD1-induced toxicity increasing SH-SY5Y cell survival”.

As for “SOD1^G85R: recombinant dismutase inactive SOD1 mutant, 6His-tagged (N-term)”, in experiment [3], the “inhibition of VDAC1 interaction with 1C17 peptide” value (“inhibition … with 1C17 peptide” for short) is “at a similar level”; the “decrease of VDAC1 interaction with both SOD1-derived peptides 1C16 and 1C17” value (“decrease of VDAC1 interaction” for short) is “decreased the VDAC1 interaction with both SOD1-derived peptides”.

Turning to “SOD1^WT: recombinant wild type SOD1, 6His-tagged (N-term)”, in experiment [3], the “inhibition … with 1C17 peptide” value was “at a similar level”; the “decrease of VDAC1 interaction” value is reported as “decreased the VDAC1 interaction with both SOD1-derived peptides”.

Consider “SOD1^G93A: recombinant dismutase active SOD1 mutant, 6His-tagged (N-term)”, for which the “inhibition of VDAC1 interaction with 1C16 peptide” value in experiment [3] (spot 1C16) was “prevented the interaction of VDAC1 with the 1C16 peptide better than SOD1^WT and SOD1^G85R”. In experiment [3], the “inhibition … with 1C17 peptide” value is reported as “at a similar level”; the “decrease of VDAC1 interaction” value is given as “decreased the VDAC1 interaction with both SOD1-derived peptides”.
